Measured values as given in PubChem BioAssay (NCI).
Where “and” joins values, the source holds several entries; their conditions need not be identical. Equal values may be shown once.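 Exposure lasted 48 hours, with cells grown in 96-well plates and compounds tested at five concentrations. GI50 is the concentration that inhibits growth by half. At the TGI there is no net growth.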

Experiments:
Assay in all cases: NCI-60 cell line screen, 48 h
M14 melanoma = test system: M14 melanoma
UACC-257 melanoma = test system: UACC-257 melanoma
HOP-92 NSCLC = test system: HOP-92 NSCLC
HCT-15 colon = test system: HCT-15 colon
SK-MEL-28 melanoma = test system: SK-MEL-28 melanoma
OVCAR-4 ovarian = test system: OVCAR-4 ovarian
ACHN renal = test system: ACHN renal
CCRF-CEM leukemia = test system: CCRF-CEM leukemia
NCI-H226 lung = test system: NCI-H226 lung
SR leukemia = test system: SR leukemia

SMILES	GI50 (M14 melanoma)	TGI (M14 melanoma)	GI50 (UACC-257 melanoma)	TGI (UACC-257 melanoma)	GI50 (HOP-92 NSCLC) [nM]	TGI (HOP-92 NSCLC)	GI50 (HCT-15 colon)	TGI (HCT-15 colon)	GI50 (SK-MEL-28 melanoma)	TGI (SK-MEL-28 melanoma)	GI50 (OVCAR-4 ovarian) [nM]	TGI (OVCAR-4 ovarian)	GI50 (ACHN renal)	TGI (ACHN renal)	GI50 (CCRF-CEM leukemia)	TGI (CCRF-CEM leukemia)	GI50 (NCI-H226 lung) [nM]	TGI (NCI-H226 lung)	GI50 (SR leukemia)	TGI (SR leukemia)
C=C1C(=O)O[C@H]2[C@H]1CC/C(Cn1cc(-c3ccc(F)cc3)nn1)=C\CC[C@@]1(C)O[C@@H]21	944 nM	2440 nM	1470 nM	3000 nM	349	1120 nM	282 nM	1190 nM	822 nM	2210 nM	1290	3030 nM	182 nM	445 nM	247 nM	750 nM	2480	6740 nM	251 nM	1180 nM
Cn1c(-c2ccccc2)c(/C=C/C2=[N+](C)c3ccccc3C2(C)C)c2ccccc21	963 nM	3400 nM	405 nM	2530 nM	616	4640 nM	3920 nM	22100 nM	1190 nM	11800 nM	1810	14400 nM	3050 nM	11700 nM	1180 nM	54700 nM	2350	12200 nM	433 nM	5770 nM
CCC1(OC(=O)CN)C(=O)OCc2c1cc1n(c2=O)Cc2cc3ccccc3nc2-1 (configuration not stated)	17.9 nM	846 nM and 174 nM	85.9 nM	721 nM and 545 nM	97.1		192 nM	> 20300 nM	851 nM	38700 nM	256	994 nM and 4550 nM	4.76 nM	183 nM and 62.8 nM	1.16 nM	534 nM and 677 nM	15.1	150 nM and 63.8 nM		< 34.7 nM
Nc1ccc(COC(O)CN2CCCCC2)cc1[N+](=O)[O-] (configuration not stated)		> 100000 nM		> 100000 nM		> 100000 nM		> 100000 nM		> 100000 nM		> 100000 nM		> 100000 nM		> 100000 nM		> 100000 nM		> 100000 nM
CC(=O)OC12c3ccccc3-c3ccccc3C1C(C(=O)O)C2C(=O)O (configuration not stated)		> 10000 nM		> 10000 nM		> 10000 nM		> 10000 nM		> 10000 nM		> 10000 nM		> 10000 nM		> 10000 nM		> 10000 nM		> 10000 nM
CCOC(=O)C12C(C(=O)OC)=C(C)N(NC(=O)Nc3ccccc3)C1(N)N(NC(=O)Nc1ccccc1)C(C)=C2C(=O)OC (configuration not stated)		45600 nM		62900 nM		66300 nM		> 100000 nM		> 88700 nM		> 100000 nM		> 100000 nM		59000 nM		> 100000 nM		59100 nM
CC(=O)O[C@H]1C(=O)[C@@]2(C)[C@H]([C@H](OC(=O)c3ccccc3)[C@]3(O)C[C@H](OC(=O)[C@H](OC(=O)OC[C@H]4COC(C)(C)O4)[C@@H](NC(=O)c4ccccc4)c4ccccc4)C(C)=C1C3(C)C)[C@]1(OC(C)=O)CO[C@@H]1C[C@@H]2O	17.1 nM	133 nM		> 33300 nM	51.9	> 33300 nM	228 nM	> 33300 nM	> 33300 nM	> 33300 nM	> 33300	> 33300 nM	343 nM	> 33300 nM	26.5 nM	> 33300 nM	290	> 33300 nM	12.6 nM	> 33300 nM
CCCCCCCC/C=C1\CCC(CN2CCOCC2)C1=O (configuration not stated)		16700 nM		21700 nM		33000 nM		9520 nM		21200 nM		31000 nM		30100 nM		10900 nM		33300 nM		5300 nM
CCCCCCCCCCCCCCCCOP(=O)([O-])OCC[N+](C)(C)C	1560 nM		2310 nM	6980 nM and 64700 nM	1140	3120 nM and 15300 nM	842 nM		3650 nM	14200 nM and 58500 nM	2880	12600 nM and 38600 nM	1600 nM	3630 nM and 30800 nM	1090 nM and 9720 nM		1590		546 nM	3460 nM and 28500 nM
O=CN1N=C(c2cccc(Nc3ccnc4cc(Cl)ccc34)c2)CC1c1ccccc1 (configuration not stated)	284 nM	6750 nM	301 nM	37600 nM	209	787 nM	511 nM	> 100000 nM	650 nM	24600 nM	536	> 100000 nM	778 nM	> 79400 nM	310 nM	1480 nM	3320	> 55700 nM	201 nM	1720 nM
Cn1nc(C(F)(F)F)c(-c2cc(C(F)(F)F)cc(C(F)(F)F)c2)c1-c1ccc(OCc2ccc(Cl)cc2)cc1O	2070 nM	5270 nM	2070 nM	6110 nM	1630	5070 nM	2140 nM	10700 nM	2320 nM	10700 nM	2680	13300 nM	2540 nM	10000 nM	2260 nM	14900 nM	2100	5670 nM	1790 nM	7510 nM
O=C(c1ccccc1)c1c(C(F)(F)F)n([O-])c2cc(C(F)(F)F)ccc2[n+]1=O	1680 nM	3170 nM	1710 nM	3350 nM	1510	2950 nM	1600 nM	3240 nM	1710 nM	3230 nM	1190	2890 nM	1540 nM	2930 nM	600 nM	2440 nM	1830	4010 nM	1170 nM	3530 nM
C1CN(P2(N3CC3)=NP(N3CC3)(N3CC3)=NP(N3CC3)(N3CC3)=N2)CCO1 (configuration not stated)		> 100000 nM		> 100000 nM		> 100000 nM		> 100000 nM		> 100000 nM		> 100000 nM		> 100000 nM		> 100000 nM		> 100000 nM		> 47400 nM
CC(C)c1cccc(O)c(=O)c1	75 µg/mL	> 75 µg/mL and > 57.5 µM	2.33 µg/mL	23 µg/mL and 46.6 µM		> 100000 nM	0.997 µg/mL	> 75 µg/mL and > 100 µM	0.138 µg/mL			> 100000 nM	1.75 µg/mL	18.3 µg/mL and 48.9 µM	0.312 µg/mL			50100 nM	0.496 µg/mL	
